The record followed here is US8846699B2, “Quinazoline derivatives as a multiplex inhibitor and method for the preparation thereof” (Hanmi Pharm. Co., Ltd., priority 2005, dated 2014).

Broadly, the IC50 is the concentration that gives 50% inhibition. Lower therefore signals greater potency in that assay.

Test [1] relates to colon and rectal cancer cell line, SW-620. As to the kind of experiment: Inhibitory effect on growth of cancer cell line SW-620, SRB. It counts as cell-based. The settings on record: Homo sapiens, 72 h, not having overexpressed EGFR and EGFR2. The text has this:
(§1) A skin cancer cell line, A431 (ATCC: CRL-1555), a breast cancer cell line, SK-Br3 (ATCC: HTB-30), and a colon and rectal cancer cell line, SW-620 (ATCC: CCL-227) were used to test the degrees of cancer cell growth inhibition using a culture medium, DEME (Dulbecco's Modified Eagle's Medium, JBI) including 4.5 g/l of glucose and 1.5 g/l of sodium bicarbonate and supplemented with 10% FBS (fetal bovine serum, JBI).
(§2) The cancer cell lines stored in a liquid nitrogen tank were each quickly thawed at 37° C., and centrifuged to remove the medium. The resulting cell pellet was mixed with a culture medium, incubated in a culture flask at 37° C. under 5% CO2 for 2 to 3 days, and the medium was removed. The remaining cells were washed with DPBS (Dulbecco's Phosphate Buffered Saline, JBI) and separated from the flask by using Trypsin-EDTA solution, and the separated cells were diluted with a culture medium to a concentration of 1.0×10^6 cells/ml in case of A431 and SW-620, and 2.0×10^6 cells/ml in case of SK-Br3. 100 μl of the diluted cell solution was added to each well of a 96-well plate, which was incubated at 37° C. under 5% CO2 for 1 day.
(§3) In case that the test compound was not soluble in DMSO, a small amount of 1% HCl was added thereto and treated in a 40° C. water bath for 30 mins until complete dissolution was attained. The test compound solution was diluted with a culture medium to a final concentration of 10 μM, and then diluted 10 times serially to 10^−4. The final concentration of DMSO was less than 1%, and the control compounds of Test Example 1 were used at a concentration of 0.0001 to 10 μM.
(§4) The medium was removed from each well of the 96-well microplate, 100 μl of a diluted test compound solution was added to each well holding cultured cells, and the microplate was incubated at 37° C. under 5% CO2 for 72 hours. After removing the medium from the plate, 50 μl of 10% trichloroacetic acid was added to each well, and the plate was kept at 37° C. for 1 hour to fix the cells to the bottom of the plate. 10% trichloroacetic acid was removed from each well, the plate was dried, 100 μl of an SRB (Sulforhodamine-B, Sigma) dye solution was added thereto, and reacted for 10 mins. The SRB dye solution was prepared by dissolving SRB in 1% acetic acid to a concentration of 0.4%. After removing the dye solution, the plate was washed with water, and dried. When the dye solution was not removed by water, 1% acetic acid was used.
(§5) 150 μl of 10 mM trisma base (Sigma) was added to each well, and the absorbance at 570 nm was determined with a microplate reader (Molecular device).

For test [2], the system named is breast cancer cell line, SK-Br3. Kind of test: Inhibitory effect on growth of cancer cell line SK-Br3, SRB. It counts as cell-based. The note with it: Homo sapiens, SK-BR-3, 72 h, overexpressed EGFR2 (HER-2).
From the text: as §1, §2, §3, §4, §5

The target of test [3] is VEGFR2 (KDR) (Homo sapiens (Human), UniProt P35968). As to the kind of experiment: VEGFR2 (KDR) enzyme assay, fluorescence polarization. The format is biochemical. The settings on record: 5 μM ATP, poly(Glu, Tyr) substrate. As to the method: VEGFR2 (KDR, Proquinase) enzyme assay (auto-phosphorylation assay) was carried out by using Tyrosine Kinase Assay Kit Green (Panvera). The entire assay was conducted in accordance with VEGFR PTK inhibitor cellular activity test S.O.P.
Sequence of VEGFR2 (KDR) (P35968 20-1356): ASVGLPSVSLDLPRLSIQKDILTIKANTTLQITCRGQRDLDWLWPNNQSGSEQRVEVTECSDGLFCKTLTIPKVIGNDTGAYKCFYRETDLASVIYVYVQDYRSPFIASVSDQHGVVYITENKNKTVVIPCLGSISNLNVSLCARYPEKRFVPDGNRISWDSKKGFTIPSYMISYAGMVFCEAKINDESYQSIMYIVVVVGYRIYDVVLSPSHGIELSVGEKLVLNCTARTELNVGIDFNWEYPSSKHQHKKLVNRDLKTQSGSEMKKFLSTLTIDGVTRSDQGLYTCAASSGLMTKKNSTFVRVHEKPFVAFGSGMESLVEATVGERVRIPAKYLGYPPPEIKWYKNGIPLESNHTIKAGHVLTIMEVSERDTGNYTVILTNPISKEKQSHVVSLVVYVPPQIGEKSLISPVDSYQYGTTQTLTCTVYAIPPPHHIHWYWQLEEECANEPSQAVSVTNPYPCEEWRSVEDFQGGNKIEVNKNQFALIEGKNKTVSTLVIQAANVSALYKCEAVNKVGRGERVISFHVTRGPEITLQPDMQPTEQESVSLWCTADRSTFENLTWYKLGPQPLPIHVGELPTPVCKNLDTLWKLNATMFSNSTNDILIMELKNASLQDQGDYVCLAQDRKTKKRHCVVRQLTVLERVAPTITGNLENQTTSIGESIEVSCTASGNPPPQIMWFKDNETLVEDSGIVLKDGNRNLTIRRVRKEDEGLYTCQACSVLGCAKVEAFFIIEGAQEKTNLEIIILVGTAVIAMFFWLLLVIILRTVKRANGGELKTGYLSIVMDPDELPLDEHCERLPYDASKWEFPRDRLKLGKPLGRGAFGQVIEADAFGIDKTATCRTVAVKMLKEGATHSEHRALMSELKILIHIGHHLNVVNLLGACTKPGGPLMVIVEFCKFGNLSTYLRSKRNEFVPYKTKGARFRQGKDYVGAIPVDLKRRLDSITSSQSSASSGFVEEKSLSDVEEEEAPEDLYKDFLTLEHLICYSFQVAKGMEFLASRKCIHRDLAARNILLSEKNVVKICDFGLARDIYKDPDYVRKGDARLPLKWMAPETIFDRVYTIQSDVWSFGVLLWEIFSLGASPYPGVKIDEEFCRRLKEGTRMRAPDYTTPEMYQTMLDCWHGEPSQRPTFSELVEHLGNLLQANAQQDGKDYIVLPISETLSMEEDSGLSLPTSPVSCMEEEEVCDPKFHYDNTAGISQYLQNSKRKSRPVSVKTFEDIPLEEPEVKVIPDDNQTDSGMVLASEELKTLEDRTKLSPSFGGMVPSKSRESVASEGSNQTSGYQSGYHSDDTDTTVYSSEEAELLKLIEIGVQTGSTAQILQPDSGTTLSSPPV
A typical kinase inhibition reaction requires a protein tyrosine kinase, a suitable buffer solution system, a peptide substrate and ATP. In the present VEGFR tyrosine kinase assay, a buffer solution system containing 20 mM HEPES (pH 7.4), 5 mM MgCl2 and 2 mM MnCl2; 50 μM Na3VO4; 200 ng/10 μl VEGFR (Proquinase); 5 μM ATP; and 10 ng/ml poly(Glu, Tyr) (4:1, Sigma) as a substrate were used.
The compounds of Test Example 1 were used as control compounds at a concentration of 0.0001 to 10 μM. After 10 min, 10 μl of poly(Glu, Tyr) as a substrate was added to each well, and 10 μl of ATP was added thereto to initiate kinase reaction. The plate was incubated at room temperature for 1 hour, and 10 μl of 100 mM EDTA was added to each well to terminate the kinase reaction.
The added EDTA was mixed for 5 min. Thereafter, 10 μl of 10× anti-phosphotyrosine antibody (Panvera), 10 μl of 10×PTK Green Tracer (Panvera) and 30 μl of FP dilution buffer (Panvera) were added thereto, and the plate was incubated in a dark room at room temperature for 30 min.
A general note: In fluorescence polarisation assays a small probe gives low polarisation when free and higher when bound to something large.

For test [4], the system named is skin cancer cell line, A431. As to the kind of experiment: Inhibitory effect on growth of cancer cell line A431, SRB. It counts as cell-based. The settings on record: Homo sapiens, A-431, 72 h, overexpressed EGFR1 (HER-1).
From the text: as §1, §2, §3, §4, §5

Test [5] has as its target EGFR1 (HER-1) (Homo sapiens (Human), UniProt P00533). Kind of test: EGFR1 (HER-1) enzyme assay, fluorescence polarization. The format is biochemical. The settings on record: 100 μM ATP, poly(Glu, Tyr) substrate.
For test [6], the system named is Human Umbilical Vein Endothelial Cell (HUVEC). As to the kind of experiment: Inhibitory effect on growth of human umbilical vein endothelial cell (HUVEC), MTS. It counts as cell-based. The note with it: Homo sapiens, 96 h, 10 ng/ml VEGF, absorbance 490 nm. As to the method:
HUVECs (Young Science, Inc) were suspended in a culture medium, EBM-2 (Endothelial Basic Media, Cambrex) supplemented with 2% bovine serum (Cambrex) and auxiliary additives for HUVEC culture (e.g., EGF, VEGF, FGF, etc., Cambrex), inoculated into a culture flask coated with 1% gelatin, and incubated in an incubator at 37° C. under 5% CO2 and 100% humidity.
100 μl of 5% bovine serum medium containing 10 ng/ml of vascular endothelial growth factor (VEGF) and auxiliary additives, while excluding other growth factors was added to each well of a 96-well plate. […] DMSO (Dimethylsulfoxide) was used to dissolve the test compounds, and the final concentration of DMSO was less than 1%.
100 μl of the diluted cell solution was added to each well of the 96-well plate, which was incubated in an incubator for 96 hours.
Then, 20 μl of MTS ([…], Promega) solution was added to each well of the plate, and the plate was incubated in an incubator for 4 hours to induce discoloration. After 4 hours, the pellets were dissolved by way of a thorough shaking, and the absorbance at 490 nm was determined.

Sequence of EGFR1 (HER-1) (P00533 25-1210): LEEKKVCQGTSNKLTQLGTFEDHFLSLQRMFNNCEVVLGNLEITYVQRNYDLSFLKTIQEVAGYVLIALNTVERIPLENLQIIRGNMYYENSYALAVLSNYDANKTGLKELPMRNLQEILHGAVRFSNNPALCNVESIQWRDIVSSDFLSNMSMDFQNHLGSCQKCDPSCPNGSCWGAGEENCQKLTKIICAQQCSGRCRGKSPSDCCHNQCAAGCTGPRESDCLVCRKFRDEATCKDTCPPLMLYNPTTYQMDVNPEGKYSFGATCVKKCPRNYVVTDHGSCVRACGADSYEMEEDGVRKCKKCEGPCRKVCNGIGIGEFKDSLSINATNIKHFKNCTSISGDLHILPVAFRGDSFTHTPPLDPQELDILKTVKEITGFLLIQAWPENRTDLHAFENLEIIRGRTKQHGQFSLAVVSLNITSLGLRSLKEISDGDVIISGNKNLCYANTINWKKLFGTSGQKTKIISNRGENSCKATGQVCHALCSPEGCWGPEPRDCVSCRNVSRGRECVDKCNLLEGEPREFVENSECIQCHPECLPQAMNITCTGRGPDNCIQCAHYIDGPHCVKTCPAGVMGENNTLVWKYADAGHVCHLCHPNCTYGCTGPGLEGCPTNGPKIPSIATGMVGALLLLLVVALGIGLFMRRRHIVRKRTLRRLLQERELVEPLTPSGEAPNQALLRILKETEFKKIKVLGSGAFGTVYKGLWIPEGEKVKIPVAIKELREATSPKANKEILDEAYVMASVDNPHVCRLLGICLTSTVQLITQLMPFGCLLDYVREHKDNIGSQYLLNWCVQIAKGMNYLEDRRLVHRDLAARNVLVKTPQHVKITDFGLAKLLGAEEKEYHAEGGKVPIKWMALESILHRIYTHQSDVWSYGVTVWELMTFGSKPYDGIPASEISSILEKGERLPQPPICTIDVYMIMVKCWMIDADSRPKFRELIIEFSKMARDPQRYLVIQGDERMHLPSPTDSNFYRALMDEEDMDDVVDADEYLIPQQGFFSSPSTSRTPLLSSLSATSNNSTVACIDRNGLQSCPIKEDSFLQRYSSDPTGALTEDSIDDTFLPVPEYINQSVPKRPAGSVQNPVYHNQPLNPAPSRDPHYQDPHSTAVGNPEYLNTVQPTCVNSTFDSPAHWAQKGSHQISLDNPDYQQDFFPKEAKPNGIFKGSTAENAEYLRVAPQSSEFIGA

`C=CC(=O)Nc1cc2c(Nc3ccc(F)c(F)c3F)ncnc2cc1OCCNC(C)=O` [Example 118, N-[7-(2-acetylamino-ethoxy)-4-(2,3,4-trifluoro-phenylamino)-quinazolin-6-yl]-acrylamide]: the IC50 was 0.725 µM in test [1]; 79 nM in test [2]; 489 nM in test [3]; 15 nM in test [4]; 14 nM in test [5]; 681 nM in test [6].
In the case of `C=CC(=O)Nc1cc2c(Nc3ccc(OCc4cccnc4)c(Cl)c3)ncnc2cc1OCCNC(C)=O` [Example 130, N-{7-(2-acetylamino-ethoxy)-4-[3-chloro-4-(pyridin-3-ylmethoxy)-phenylamino]-quinazolin-6-yl}-acrylamide], the IC50 in test [1] was found to be 5.53 µM; in test [2], 987 nM; in test [3] it was 853 nM; in test [4], 789 nM; in test [5], 796 nM; in test [6], 964 nM.
Take `C=CC(=O)Nc1cc2c(Nc3ccc(Br)cc3F)ncnc2cc1OCCCNC(=O)CS(C)(=O)=O` [Example 15, N-{4-(4-bromo-2-fluoro-phenylamino)-7-[3-(2-methanesulfonyl-acetylamino)-propoxy]-quinazolin-6-yl}-acrylamide]: the IC50 in test [1] amounted to 9.57 µM; in test [2], 734 nM; in test [3] it was 330 nM; in test [4] it was 118 nM; in test [5], 68 nM; in test [6], 150 nM.
With `C=CC(=O)Nc1cc2c(Nc3ccc(Br)cc3F)ncnc2cc1OCCNC(=O)C1CC1` [Example 21, cyclopropane carboxylic acid {2-[6-acrylamino-4-(4-bromo-2-fluoro-phenylamino)-quinazolin-7-yloxy]-ethyl}-amide], the IC50 in test [1] is 7.9 µM; in test [2], 36 nM; in test [3], 513 nM; in test [4] it was 20 nM; in test [5], 8 nM; in test [6], 951 nM.
Take `C=CC(=O)Nc1cc2c(Nc3ccc(Br)cc3F)ncnc2cc1OCCNC(=O)CSC` [Example 46, N-{4-(4-bromo-2-fluoro-phenylamino)-7-[2-(2-methylsulfanyl-acetylamino)-ethoxy]-quinazolin-6-yl}-acrylamide]: the IC50 in test [1] was found to be 7.52 µM; in test [2], 198 nM; in test [3], 635 nM; in test [4] it was 35 nM; in test [5] it was 39 nM; in test [6], 656 nM.
On to `C=CC(=O)Nc1cc2c(Nc3ccc(Br)cc3F)ncnc2cc1OCCNC(=O)OC` [Example 63, {2-[6-acryloylamino-4-(4-bromo-2-fluoro-phenylamino)-quinazolin-7-yloxy]-ethyl}-carbamic acid methylester], for which the IC50 amounted to 10 µM in test [1]; 198 nM in test [2]; 84 nM in test [3]; 140 nM in test [4]; 158 nM in test [5]; 102 nM in test [6].
Take `C=CC(=O)Nc1cc2c(Nc3ccc(Br)cc3F)ncnc2cc1OCCNC(=O)CCOC` [Example 64, N-{4-(4-bromo-2-fluoro-phenylamino)-7-[2-(3-methoxy-propionylamino)-ethoxy]-quinazolin-6-yl}-acrylamide]: the IC50 came out at 4.59 µM in test [1]; 360 nM in test [2]; 231 nM in test [3]; 72 nM in test [4]; 70 nM in test [5]; 298 nM in test [6].
For the molecule `C=CC(=O)Nc1cc2c(Nc3ccc(Br)cc3F)ncnc2cc1OCC1CCN(C(=O)NCC)CC1` [Example 171, 4-[6-acryloylamino-4-(4-bromo-2-fluoro-phenylamino)-quinazolin-7-yloxymethyl]-piperidine-1-carboxylic acid ethylamide], the IC50 in test [1] was 10 µM; in test [2], 147 nM; in test [3], 136 nM; in test [4], 25 nM; in test [5], 20 nM; in test [6] it was 150 nM.
`C=CC(=O)Nc1cc2c(Nc3ccc(Br)cc3F)ncnc2cc1OCCCCNC(C)=O` [Example 20, N-[7-(4-acetylamino-butoxy)-4-(4-bromo-2-fluoro-phenylamino)-quinazolin-6-yl]-acrylamide]: the IC50 was 10 µM in test [1]; 1100 nM in test [2]; 545 nM in test [3]; 45 nM in test [4]; 10 nM in test [5]; 682 nM in test [6].
`C=CC(=O)Nc1cc2c(Nc3ccc(Br)cc3F)ncnc2cc1OCCNC(=O)N1CCOCC1` [Example 93, morpholine-4-carboxylic acid {2-[6-acryloylamino-4-(4-bromo-2-fluoro-phenylamino)-quinazolin-7-yloxy]-ethyl}-amide]: the IC50 in test [1] came out at 10 µM; in test [2] it was 53 nM; in test [3], 197 nM; in test [4], 46 nM; in test [5], 36 nM; in test [6] it was 269 nM.
For the molecule `C=CC(=O)Nc1cc2c(Nc3ccc(Br)cc3F)ncnc2cc1OCCN(C)C(C)=O` [Example 42, N-[7-[2-(acetyl-methyl-amino)-ethoxy]-4-(4-bromo-2-fluoro-phenylamino)-quinazolin-6-yl]-acrylamide], the IC50 was 9.56 µM in test [1]; 142 nM in test [2]; 687 nM in test [3]; 63 nM in test [4]; 59 nM in test [5]; 786 nM in test [6].
As for `CCC(=O)Nc1cc2c(Nc3ccc(Br)cc3F)ncnc2cc1OCCNC(C)=O` [Example 77, propionic acid [7-(2-acetylamino-ethoxy)-4-(4-bromo-2-fluoro-phenylamino)-quinazolin-6-yl]-amide], the IC50 in test [1] came to 10 µM; in test [2], 7800 nM; in test [3] it was 365 nM; in test [4], 951 nM; in test [5], 866 nM; in test [6], 350 nM.
